Laboratory results taken from patent US20200405696A1, “INHIBITORS OF INDOLEAMINE 2,3-DIOXYGENASE AND/OR TRYPTOPHAN 2,3-DIOXYGENASE” (IDORSIA PHARMACEUTICALS LTD, priority 2018, published 2020).

Tests used:
[1] = molecular target: T1, Recombinant full-length human IDO1 (Homo sapiens, UniProt P14902); assay: IDO1 enzymatic assay (NFK quantified by LCMS); format: biochemical; details: 2 nM enzyme, 5 μM L-tryptophan, pH6.5, 30 minutes pre-incubation at RT; mean values when measured multiple times; read-out: hIDO activity (IC50 in nM)
T1 construct: Recombinant full-length human IDO1 with a N-terminal hexahistidine tag; hexahistidine (His6) (N); made in house; host or cells: E. coli
Method: 1) Testing Compounds for IDO Inhibitory Activity in an IDO1 Enzymatic Assay:
Recombinant full-length human IDO1 with a N-terminal hexahistidine tag expressed in E. coli and purified to homogeneity is incubated at a final concentration of 2 nM in assay buffer consisting of 37.5 mM phosphate buffer at pH6.5 supplemented with 10 mM ascorbic acid, 0.45 μM methylene blue, 50U/ml catalase, 0.01% BSA, and 0.01% Tween 20 (protocol modified from Seegers et al, JBS 2014). Example compounds are serially diluted in DMSO, further diluted in phosphate buffer, and added to the enzyme at final concentrations ranging from 10 μM to 0.5 nM. The final DMSO concentration is 0.6%. Following a pre-incubation of 30 minutes at RT, the reaction is started by the addition of L-tryptophan at a final concentration of 5 μM in assay buffer. After 30 minutes of incubation at RT, 3 μL of the 20 μl reaction mixture are transferred to a 384 deep well plate containing 25 μL of deionized water. 100 μl of 200 nM L-Tryptophan-(indole-d5) in cold 100% methanol are added followed by a 10 minutes centrifugation at 3220×g at 4° C. An additional 75 μL of deionized water are then added followed by a 10 minutes centrifugation at 3220×g at 4° C. The product of the reaction N′-Formylkynurenine (NFK) is quantified by LCMS and normalized to the L-Tryptophan-(indole-d5) signal. Samples with 0.6% DMSO (0% effect) and a TDO/IDO inhibitor (100% effect) are used as control samples to set the parameters for the non-linear regression necessary for the determination of the half-maximal inhibitory concentration (IC50) for each compound. For each compound concentration the percentage of activity compared to 0% and 100% effect is calculated as average±STDEV (each concentration measured in duplicate). IC50 values and curves are generated with XLfit software (IDBS) using Dose-Response One Site model 203 (four parameter logistic curve model). The calculated IC50 values may fluctuate depending on the daily assay performance. Fluctuations of this kind are known to those skilled in the art. When compounds are measured multiple times, mean values are given.

[2] = molecular target: T2, Recombinant human TDO comprising amino acids 19-407 (Homo sapiens, UniProt P48775); assay: TDO2 enzymatic assay (NFK quantified by LCMS); format: biochemical; details: 15 nM enzyme, 200 μM L-tryptophan, pH7, 30 minutes pre-incubation at RT; mean values when measured multiple times; read-out: hTDO activity (IC50 in nM)
T2 construct: Recombinant human TDO comprising amino acids 19-407 with a N-terminal hexahistidine tag; hexahistidine (His6) (N); made in house; host or cells: E. coli
Method: 2) Testing Compounds for TDO Inhibitory Activity in a TDO2 Enzymatic Assay:
Recombinant human TDO comprising amino acids 19-407 with a N-terminal hexahistidine tag expressed in E. coli and purified to homogeneity is incubated at a final concentration of 15 nM in assay buffer consisting of 75 mM phosphate buffer at pH7 supplemented with 100 μM ascorbic acid, 50U/ml Catalase, 0.01% BSA, and 0.01% Tween 20 (protocol modified from Seegers et al, JBS 2014). Example compounds are serially diluted in DMSO, further diluted in phosphate buffer, and added to the reaction mixture at final concentrations ranging from 10 μM to 0.5 nM. The final DMSO concentration is 0.6%. Following a pre-incubation of 30 minutes at RT, the reaction is started by the addition of L-tryptophan at a final concentration of 200 μM in assay buffer. After 30 minutes of incubation at RT, 3 μL of the reaction mixture are transferred to a 384 deep well plate containing 25 μL of deionized water. 100 μl of 200 nM L-Tryptophan-(indole-d5) in cold 100% methanol are added followed by a 10 minutes centrifugation at 3220×g at 4° C. An additional 75 μL of deionized water are then added followed by a 10 minutes centrifugation at 3220×g at 4° C. The product of the reaction N′-Formylkynurenine (NFK) is quantified by LCMS and normalized to the L-Tryptophan-(indole-d5) signal. Samples with 0.6% DMSO (0% effect) and a TDO/IDO inhibitor (100% effect) are used as control samples to set the parameters for the non-linear regression necessary for the determination of the half-maximal inhibitory concentration (IC50) for each compound. For each compound concentration the percentage of activity compared to 0% and 100% effect is calculated as average±STDEV (each concentration measured in duplicate). IC50 values and curves are generated with XLfit software (IDBS) using Dose-Response One Site model 203 (four parameter logistic curve model). The calculated IC50 values may fluctuate depending on the daily assay performance. Fluctuations of this kind are known to those skilled in the art. When compounds are measured multiple times, mean values are given.

T1 sequence (P14902 whole entry): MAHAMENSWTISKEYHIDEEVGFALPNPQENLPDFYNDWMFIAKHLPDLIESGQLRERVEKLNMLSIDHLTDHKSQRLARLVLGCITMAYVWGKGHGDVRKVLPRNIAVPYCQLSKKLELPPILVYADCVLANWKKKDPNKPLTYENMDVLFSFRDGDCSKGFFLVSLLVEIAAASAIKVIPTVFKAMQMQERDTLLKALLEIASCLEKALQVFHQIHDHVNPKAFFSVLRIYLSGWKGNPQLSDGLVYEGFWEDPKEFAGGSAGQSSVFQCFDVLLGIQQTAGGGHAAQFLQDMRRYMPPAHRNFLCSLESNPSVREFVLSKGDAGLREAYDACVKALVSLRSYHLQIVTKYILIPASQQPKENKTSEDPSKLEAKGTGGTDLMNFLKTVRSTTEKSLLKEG
T2 sequence (P48775 19-406 limits assumed): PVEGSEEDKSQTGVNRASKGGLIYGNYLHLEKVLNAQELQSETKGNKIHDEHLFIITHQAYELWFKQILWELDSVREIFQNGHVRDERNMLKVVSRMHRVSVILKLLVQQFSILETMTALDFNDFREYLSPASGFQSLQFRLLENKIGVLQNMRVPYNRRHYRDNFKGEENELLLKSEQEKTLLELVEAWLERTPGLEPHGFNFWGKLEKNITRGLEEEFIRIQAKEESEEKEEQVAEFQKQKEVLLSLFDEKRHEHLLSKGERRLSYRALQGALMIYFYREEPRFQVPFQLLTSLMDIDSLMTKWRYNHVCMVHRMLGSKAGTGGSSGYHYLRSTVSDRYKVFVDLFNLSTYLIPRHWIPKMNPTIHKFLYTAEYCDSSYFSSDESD

Compound | IC50 [1] [nM] | IC50 [2] [nM]
OC(c1cn(-c2cccc3ccncc23)nn1)c1c(C2CC2)sc2cncn12 (racemic) [Example 22, rac-(2-Cyclopropyl-imidazo[5,1-b]thiazol-3-yl)-(1-isoquinolin-8-yl-1H-[1,2,3]triazol-4-yl)-methanol] | 39.6 | > 10200
OC(c1cn(-c2cccc3cnccc23)nn1)c1c(C2CC2)sc2cncn12 (racemic) [Example 23, rac-(2-Cyclopropyl-imidazo[5,1-b]thiazol-3-yl)-(1-isoquinolin-5-yl-1H-[1,2,3]triazol-4-yl)-methanol] | 24 | > 10200
OC(c1cn(-c2cccc3ncccc23)nn1)c1c(C2CC2)sc2cncn12 (racemic) [Example 24, rac-(2-Cyclopropyl-imidazo[5,1-b]thiazol-3-yl)-(1-quinolin-5-yl-1H-[1,2,3]triazol-4-yl)-methanol] | 22.8 | > 10200
OC(c1cn(-c2ccnc3ccccc23)nn1)c1c(C2CC2)sc2cncn12 (racemic) [Example 25, rac-(2-Cyclopropyl-imidazo[5,1-b]thiazol-3-yl)-(1-quinolin-4-yl-1H-[1,2,3]triazol-4-yl)-methanol] | 18.3 | > 10200
OC(c1cn(-c2cncc3ccccc23)nn1)c1c(C2CC2)sc2cncn12 (racemic) [Example 26, rac-(2-Cyclopropyl-imidazo[5,1-b]thiazol-3-yl)-(1-isoquinolin-4-yl-1H-[1,2,3]triazol-4-yl)-methanol] | 5.68 | 4190
OC(c1cn(-c2cccc3cc[nH]c23)nn1)c1c(C2CC2)sc2cncn12 (racemic) [Example 27, rac-(2-Cyclopropyl-imidazo[5,1-b]thiazol-3-yl)-[1-(1H-indol-7-yl)-1H-[1,2,3]triazol-4-yl]-methanol] | 24.1 | > 10200
Cc1cccc(-n2cc(C(O)c3c(C4CC4)sc4cncn34)nn2)c1 (racemic) [Example 28, rac-(2-Cyclopropyl-imidazo[5,1-b]thiazol-3-yl)-(1-m-tolyl-1H-[1,2,3]triazol-4-yl)-methanol] | 28.8 | > 10200
OC(c1cn(-c2ccccc2C(F)(F)F)nn1)c1c(C2CC2)sc2cncn12 (racemic) [Example 29, rac-(2-Cyclopropyl-imidazo[5,1-b]thiazol-3-yl)-[1-(2-trifluoromethyl-phenyl)-1H-[1,2,3]triazol-4-yl]-methanol] | 163 | > 10200
OC(c1cn(-c2ccncc2)nn1)c1c(C2CC2)sc2cncn12 (racemic) [Example 30, rac-(2-Cyclopropyl-imidazo[5,1-b]thiazol-3-yl)-(1-pyridin-4-yl-1H-[1,2,3]triazol-4-yl)-methanol] | 63.2 | > 10200
OC(c1cn(-c2ccc(OC(F)(F)F)cc2)nn1)c1c(C2CC2)sc2cncn12 (racemic) [Example 31, rac-(2-Cyclopropyl-imidazo[5,1-b]thiazol-3-yl)-[1-(4-trifluoromethoxy-phenyl)-1H-[1,2,3]triazol-4-yl]-methanol] | 108 | > 10200
CCOc1ccc(-n2cc(C(O)c3c(C4CC4)sc4cncn34)nn2)cc1 (racemic) [Example 32, rac-(2-Cyclopropyl-imidazo[5,1-b]thiazol-3-yl)-[1-(4-ethoxy-phenyl)-1H-[1,2,3]triazol-4-yl]-methanol] | 5.3 | > 10200
CC(C)Oc1ccc(-n2cc(C(O)c3c(C4CC4)sc4cncn34)nn2)cc1 (racemic) [Example 33, rac-(2-Cyclopropyl-imidazo[5,1-b]thiazol-3-yl)-[1-(4-isopropoxy-phenyl)-1H-[1,2,3]triazol-4-yl]-methanol] | 20 | > 10200
OC(c1cn(-c2ccc(Cl)cc2)nn1)c1c(C2CC2)sc2cncn12 (racemic) [Example 34, rac-[1-(4-Chloro-phenyl)-1H-[1,2,3]triazol-4-yl]-(2-cyclopropyl-imidazo[5,1-b]thiazol-3-yl)-methanol] | 21.9 | > 10200
OC(c1cn(-c2ccc(OCC3CC3)cc2)nn1)c1c(C2CC2)sc2cncn12 (racemic) [Example 35, rac-(2-Cyclopropyl-imidazo[5,1-b]thiazol-3-yl)-[1-(4-cyclopropylmethoxy-phenyl)-1H-[1,2,3]triazol-4-yl]-methanol] | 8.83 | > 10200
COC(=O)Nc1ccc(-n2cc(C(O)c3c(C4CC4)sc4cncn34)nn2)cc1 (racemic) [Example 36, rac-(4-{4-[(2-Cyclopropyl-imidazo[5,1-b]thiazol-3-yl)-hydroxy-methyl]-[1,2,3]triazol-1-yl}-phenyl)-carbamic Acid Methyl Ester] | 11.1 | 8520
OC(c1cn(-c2ccc(CN3CCOCC3)cc2)nn1)c1c(C2CC2)sc2cncn12 (racemic) [Example 37, rac-(2-Cyclopropyl-imidazo[5,1-b]thiazol-3-yl)-[1-(4-morpholin-4-ylmethyl-phenyl)-1H-[1,2,3]triazol-4-yl]-methanol] | 175 | > 10200
OC(c1cn(-c2ccc(N3CCOCC3)cc2)nn1)c1c(C2CC2)sc2cncn12 (racemic) [Example 38, rac-(2-Cyclopropyl-imidazo[5,1-b]thiazol-3-yl)-[1-(4-morpholin-4-yl-phenyl)-1H-[1,2,3]triazol-4-yl]-methanol] | 72.7 | > 10200
OC(c1cn(-c2ccc3c(c2)OCCO3)nn1)c1c(C2CC2)sc2cncn12 (racemic) [Example 39, rac-(2-Cyclopropyl-imidazo[5,1-b]thiazol-3-yl)-[1-(2,3-dihydro-benzo[1,4]dioxin-6-yl)-1H-[1,2,3]triazol-4-yl]-methanol] | 21.9 | > 10200
OCC1(c2ccc(-n3cc(C(O)c4c(C5CC5)sc5cncn45)nn3)cc2)CC1 (racemic) [Example 40, rac-(2-Cyclopropyl-imidazo[5,1-b]thiazol-3-yl)-{1-[4-(1-hydroxymethyl-cyclopropyl)-phenyl]-1H-[1,2,3]triazol-4-yl}-methanol] | 68.3 | > 10200
OC(c1cn(-c2cn[nH]c2)nn1)c1c(C2CC2)sc2cncn12 (racemic) [Example 41, rac-(2-Cyclopropyl-imidazo[5,1-b]thiazol-3-yl)-[1-(1H-pyrazol-4-yl)-1H-[1,2,3]triazol-4-yl]-methanol] | 305 | > 10200
CCOc1ccc(-n2cc(C(O)c3c(C4CC4)sc4cncn34)nn2)cn1 (racemic) [Example 42, rac-(2-Cyclopropyl-imidazo[5,1-b]thiazol-3-yl)-[1-(6-ethoxy-pyridin-3-yl)-1H-[1,2,3]triazol-4-yl]-methanol] | 20.2 | > 10200
